Values of other authors in patent US6482832B1, “Heterocyclically substituted amides, their production and their use” (Abbott Laboratories, priority 1998, dated 2002).
Where two headings read alike, the source gives them in different places.

Legend:
cells = details: surmount the cell membrane only with difficulty
[1] = tested on: calpain-mediated cleavage of pp60src in platelets; details: activated platelets; Oda et al., J. Biol. Chem. 1993

Molecule	calpain inhibition (calpain; known calpain inhibitors)	effect on cells (cells)	calpain inhibition (calpain; M. R. Angelastro et al., J. Med. Chem. 1990, 33, 11-13)	cleavage of pp60src [1]
CC(=O)N[C@@H](CC(C)C)C(=O)N[C@@H](CC(C)C)C(=O)N[C@H](C=O)CCCNC(=N)N [leupeptin]	good calpain inhibitors	poor effect on cells		
Ph—CONH—CH(CH2Ph)—CO—COCOOCH3			only a weak calpain inhibitor	
CCCC[C@@H](C=O)NC(=O)[C@H](CC(C)C)NC(=O)OCc1ccccc1 [calpeptin]				can prevent the cleavage of pp60src
CC(C)C[C@H](NC(=O)[C@H]1O[C@@H]1C(=O)O)C(=O)NCCCCN=C(N)N [E 64]	good calpain inhibitors	poor effect on cells		
